Patent US20230091047A1 (priority 2019, published 2023)
Like-named read-outs stand apart in the source and are kept apart here.

How the values were obtained:
[1] = system: HBV (HepG2.117 cell line, inducibly HBV producing); test: Anti-HBV activity: intracellular HBV DNA by real-time PCR in HepG2.117 cells after 3 days of treatment; type: cell-based, hepatitis B virus
Procedure: The anti HBV activity was measured using the HepG2.117 cell line, a stable, inducibly HBV producing cell line, which replicates HBV in the absence of doxycycline (Tet-off system). The HepG2 cell line is available from ATCCR under number HB-8065. Transfection of the HepG2 cell line can be as described in Sun and Nassal 2006 Journal of Hepatology 45 (2006) 636-645 “Stable HepG2- and Huh7-based human hepatoma cell lines for efficient regulated expression of infectious hepatitis B virus”.
For the antiviral assay, HBV replication was induced, followed by a treatment with serially diluted compound in 96-well plates. After 3 days of treatment, the antiviral activity was determined by quantification of intracellular HBV DNA using real-time PCR and an HBV specific primer set and probe.

in vitro = type: cell-based; settings: human, HepG2 or HepG2.117 cells, mean value
Procedure: Cytotoxicity of the compounds was tested using HepG2 or HepG2.117 cells, incubated for 3 or 4 days in the presence of compounds. The viability of the cells was assessed using the PERKIN ELMER ATPlite Luminescence Assay System.”

[2] = HepG2.117 cells, 3 days of treatment, intracellular HBV DNA by real-time PCR; mean value; read-out: EC50 (μM, mean value)
[3] = 3-days incubation (unmarked values), ATPlite
[4] = Hepatitis B virus, HepG2.117, 72 h, HepG2.117 cells, 3 days of treatment, intracellular HBV DNA by real-time PCR; mean value; read-out: EC50 (μM, mean value)
[5] = Hepatitis B virus, HepG2.117, 72 h, HepG2.117 cells, intracellular HBV DNA by real-time PCR, 3 days of treatment, mean value; read-out: EC50 (μM, mean value)

Row | SMILES | CC50 at 3 days (in vitro; [3]) | EC50 [1, 4] | other results
1 | CNC(=O)c1ccc(-n2c(NC(C)C)nc3c(c2=O)C[C@@H](C)N(C(=O)c2ccc(Cl)c(Cl)c2)C3)c(C(F)(F)F)c1 (atropisomer, axis not shown) [Compound C340a, 4-[(6R)-7-(3,4-dichlorobenzoyl)-6-methyl-4-oxo-2-[(propan-2-yl)amino]-5,6,7,8-tetrahydropyrido[3,4-d]pyrimidin-3(4H)-yl]-N-methyl-3-(trifluoromethyl)benzamide] | 23.2 µM | – | EC50 [1, 2]: 0.1 µM
2 | CNC(=O)c1ccc(-n2c(N[C@@H](C)c3cccnc3OC)nc3c(c2=O)C[C@@H](C)N(C(=O)c2ccc(Cl)c(Cl)c2)C3)cc1 (relative stereo) [Compound C286, 4-[(rt)-7-(3,4-dichlorobenzoyl)-2-{[(1*S)-1-(2-methoxypyridin-3-yl)ethyl]amino}-6-methyl-4-oxo-5,6,7,8-tetrahydropyrido[3,4-d]pyrimidin-3(4H)-yl]-N-methylbenzamide] | 29 µM | 0.12 µM | –
3 | COc1ccc(CNc2nc3c(c(=O)n2-c2ccccc2OC)C[C@@H](C)N(C(=O)c2ccc(Cl)c(Cl)c2)C3)cc1 (single isomer, unassigned) [Compound C36Aa] | > 50 µM | 0.31 µM | –
4 | COc1ccc(CNc2nc3c(c(=O)n2-c2ccccc2OC)C[C@H](C)N(C(=O)c2ccc(Cl)c(Cl)c2)C3)cc1 (single isomer, unassigned) [Compound C36Ab] | > 50 µM | – | EC50 [1, 2]: 2.12 µM
5 | COc1ccccc1-n1c(N[C@H](C)CO)nc2c(c1=O)CCN(C(=O)c1ccc(Cl)c(Cl)c1)C2 (single isomer, unassigned) [Compound C62A, 7-(3,4-dichlorobenzoyl)-2-{[(2*R)-1-hydroxypropan-2-yl]amino}-3-(2-methoxyphenyl)-5,6,7,8-tetrahydropyrido[3,4-d]pyrimidin-4(3H)-one] | > 50 µM | 9.88 µM | –
6 | COc1ccccc1-n1c(N[C@@H](C)CO)nc2c(c1=O)CCN(C(=O)c1ccc(Cl)c(Cl)c1)C2 (single isomer, unassigned) [Compound C62Ba, 7-(3,4-dichlorobenzoyl)-2-{[(2*S)-1-hydroxypropan-2-yl]amino}-3-(2-methoxyphenyl)-5,6,7,8-tetrahydropyrido[3,4-d]pyrimidin-4(3H)-one] | > 50 µM | 3.65 µM | –
7 | COc1ccccc1-n1c(N[C@H](C)C(F)(F)F)nc2c(c1=O)CCN(C(=O)c1ccc(Cl)c(Cl)c1)C2 (single isomer, unassigned) [Compound C101a] | 36.9 µM | – | EC50 [1, 2]: 22.1 µM
8 | COc1ccc(CNc2nc3c(c(=O)n2-c2ccc(S(C)(=O)=O)cc2)C[C@@H](c2ccc(F)cc2)N(C(=O)c2ccc(Cl)c(Cl)c2)C3)cc1 (single isomer, unassigned) [Compound C109A, (6*S)-7-(3,4-dichlorobenzoyl)-6-(4-fluorophenyl)-3-[4-(methanesulfonyl)phenyl]-2-{[(4-methoxyphenyl)methyl]amino}-5,6,7,8-tetrahydropyrido[3,4-d]pyrimidin-4(3H)-one] | > 50 µM | > 50 µM | –
9 | COc1ccc(CNc2nc3c(c(=O)n2-c2ccc(S(C)(=O)=O)cc2)C[C@H](c2ccc(F)cc2)N(C(=O)c2ccc(Cl)c(Cl)c2)C3)cc1 (single isomer, unassigned) [Compound C109B, (6*R)-7-(3,4-dichlorobenzoyl)-6-(4-fluorophenyl)-3-[4-(methanesulfonyl)phenyl]-2-{[(4-methoxyphenyl)methyl]amino}-5,6,7,8-tetrahydropyrido[3,4-d]pyrimidin-4(3H)-one] | > 50 µM | – | –
10 | CC(C)Nc1nc2c(c(=O)n1-c1ccc(S(C)(=O)=O)cc1)C[C@@H](c1ccc(F)cc1)N(C(=O)c1ccc(Cl)c(Cl)c1)C2 (single isomer, unassigned) [Compound C110A, (6*S)-7-(3,4-dichlorobenzoyl)-6-(4-fluorophenyl)-3-[4-(methanesulfonyl)phenyl]-2-[(propan-2-yl)amino]-5,6,7,8-tetrahydropyrido[3,4-d]pyrimidin-4(3H)-one] | > 50 µM | > 50 µM | –
11 | CC(C)Nc1nc2c(c(=O)n1-c1ccc(S(C)(=O)=O)cc1)C[C@H](c1ccc(F)cc1)N(C(=O)c1ccc(Cl)c(Cl)c1)C2 (single isomer, unassigned) [Compound C110B, (6*R)-7-(3,4-dichlorobenzoyl)-6-(4-fluorophenyl)-3-[4-(methanesulfonyl)phenyl]-2-[(propan-2-yl)amino]-5,6,7,8-tetrahydropyrido[3,4-d]pyrimidin-4(3H)-one] | > 50 µM | 6.38 µM | –
12 | CC(C)Nc1nc2c(c(=O)n1-c1ccc(S(C)(=O)=O)cc1)[C@@H](C)CN(C(=O)c1ccc(Cl)c(Cl)c1)C2 (single isomer, unassigned) [Compound C154A, (*R)-7-(3,4-dichlorobenzoyl)-2-(isopropylamino)-5-methyl-3-(4-(methylsulfonyl)phenyl)-5,6,7,8-tetrahydropyrido[3,4-d]pyrimidin-4(3H)-one] | > 50 µM | 1.32 µM | –
13 | CC(C)Nc1nc2c(c(=O)n1-c1ccc(S(C)(=O)=O)cc1)[C@H](C)CN(C(=O)c1ccc(Cl)c(Cl)c1)C2 (single isomer, unassigned) [Compound C154B, (*S)-7-(3,4-dichlorobenzoyl)-2-(isopropylamino)-5-methyl-3-(4-(methylsulfonyl)-phenyl)-5,6,7,8-tetrahydropyrido[3,4-d]pyrimidin-4(3H)-one] | > 50 µM | 0.51 µM | –
14 | CC[C@@H]1Cc2c(nc(NC(C)C)n(-c3ccc(S(C)(=O)=O)cc3)c2=O)CN1C(=O)c1ccc(Cl)c(Cl)c1 (single isomer, unassigned) [Compound C158A, (6*R)-7-(3,4-dichlorobenzoyl)-6-ethyl-3-[4-(methanesulfonyl)phenyl]-2-[(propan-2-yl)amino]-5,6,7,8-tetrahydropyrido[3,4-d]pyrimidin-4(3H)-one] | > 50 µM | 0.91 µM | –
15 | CC[C@H]1Cc2c(nc(NC(C)C)n(-c3ccc(S(C)(=O)=O)cc3)c2=O)CN1C(=O)c1ccc(Cl)c(Cl)c1 (single isomer, unassigned) [Compound C158B, (6*S)-7-(3,4-dichlorobenzoyl)-6-ethyl-3-[4-(methanesulfonyl)phenyl]-2-[(propan-2-yl)amino]-5,6,7,8-tetrahydropyrido[3,4-d]pyrimidin-4(3H)-one] | 35.7 µM | 2.13 µM | –
16 | CNC(=O)OCC[C@@H](Nc1nc2c(c(=O)n1-c1ccc(C(=O)NC)cc1)C[C@@H](C)N(C(=O)c1ccc(Cl)c(Cl)c1)C2)C1CC1 (single isomer, unassigned) [Compound C256, (3*R)-3-cyclopropyl-3-({(6R)-7-(3,4-dichlorobenzoyl)-6-methyl-3-[4-(methylcarbamoyl)phenyl]-4-oxo-3,4,5,6,7,8-hexahydropyrido[3,4-d]pyrimidin-2-yl}amino)propyl methylcarbamate] | > 50 µM | 3.26 µM | –
17 | CNC(=O)OCC[C@H](Nc1nc2c(c(=O)n1-c1ccc(C(=O)NC)cc1)C[C@@H](C)N(C(=O)c1ccc(Cl)c(Cl)c1)C2)C1CC1 (single isomer, unassigned) [Compound C257, (3*S)-3-cyclopropyl-3-({(6R)-7-(3,4-dichlorobenzoyl)-6-methyl-3-[4-(methylcarbamoyl)phenyl]-4-oxo-3,4,5,6,7,8-hexahydropyrido[3,4-d]pyrimidin-2-yl}amino)propyl methylcarbamate] | > 50 µM | 0.84 µM | –
18 | CNC(=O)c1ccc(-n2c(N[C@@H](C)c3ccc(C(F)(F)F)c(F)c3)nc3c(c2=O)C[C@@H](C)N(C(=O)c2ccc(Cl)c(Cl)c2)C3)cc1 (single isomer, unassigned) [Compound C659b] | – | – | EC50 [1, 5]: > 2.5 µM
19 | CC(C)Nc1nc2c(c(=O)n1-c1ccc(S(C)(=O)=O)cc1)CCN(C(=O)c1cc3cc(Cl)ccc3[nH]1)C2 [Compound C357] | > 50 µM | – | –
20 | CC(C)Nc1nc2c(c(=O)n1-c1ccc(S(C)(=O)=O)cc1)CCN(C(=O)c1cc3ncccc3[nH]1)C2 [Compound C368] | > 50 µM | – | –
21 | CC(C)Nc1nc2c(c(=O)n1-c1ccc(S(C)(=O)=O)cc1)CCN(C(=O)c1cc3cnccc3[nH]1)C2 [Compound C369] | > 50 µM | – | –
22 | CNC(=O)c1ccc(-n2c(NCc3cnn(-c4ccccc4)n3)nc3c(c2=O)C[C@@H](C)N(C(=O)c2ccc(Cl)c(Cl)c2)C3)cc1 [Compound C464] | – | – | EC50 [1, 5]: 0.62 µM
23 | CC(C)Nc1nc2c(c(=O)n1-c1ccc(C(=O)N3CCOCC3)cc1)C[C@@H](C)N(C(=O)c1ccc(Cl)c(C(F)(F)F)c1)C2 [Compound C649] | – | – | CC50 at 3 days (in vitro; ATPlite, 3-days incubation (not marked with *)): > 50 µM
24 | CNC(=O)c1ccc(-n2c(N[C@@H](C)c3ccc(C(F)(F)F)cc3)nc3c(c2=O)C[C@@H](C)N(C(=O)c2ccc(Cl)c(C(F)(F)F)c2)C3)cc1 [Compound C650] | – | – | EC50 [1, 5]: 0.05 µM
25 | CNC(=O)c1ncc(-n2c(NC)nc3c(c2=O)C[C@@H](C)N(C(=O)c2ccc(Cl)c(C(F)(F)F)c2)C3)n1C [Compound C702] | – | – | CC50 at 3 days (in vitro; 3-days incubation (unmarked values), ATPlite viability): > 50 µM
